Measurements reported in paper PMC4512978, “Synthesis and evaluation in rats of homologous series of [^18F]-labeled dopamine D2/3 receptor agonists based on the 2-aminomethylchroman scaffold as potential PET tracers” (EJNMMI Research, 2015).

Tested on: D2/3R
Test: Kinetic analysis of PET data (1TCM, 2TCM, Logan, SRTM);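 as to 2TCM BPND change relative to control: Raclopride 1 mg/kg intravenous pretreatment versus saline controls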;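 as to SRTM BPND change relative to control: Raclopride 1 mg/kg intravenous pretreatment versus saline controls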
Assay type: in vivo, Sprague-Dawley rats
Design: key to SRTM BPND / 1TCM BPND / 2TCM BPND (VT-based): BPND = VT(target)/VT(cerebellum) − 1 (or SRTM, cerebellum reference); SRTM BPND change relative to control / 1TCM BPND change relative to control / 2TCM BPND change relative to control / Logan BPND change relative to control: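 Raclopride 1 mg/kg intravenous pretreatment versus saline controls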; 1TCM VT / 2TCM VT: unit not given here
Protocol: Kinetic analysis is described using the nomenclature proposed by Innis et al.. ROI TACs of [^18F]FEt-AMC13 were analyzed with one-tissue and two-tissue compartmental models of reversible binding (1TCM and 2TCM, respectively) to obtain individual rate constants. From these, the regional distribution volumes (VT) were calculated and compared to those obtained with Logan graphical analysis. Binding potentials (BPND) were calculated from the distribution ratios as VT (target) / VT (cerebellum) – 1, or estimated with the simplified reference tissue model (SRTM) using the cerebellum as reference region.
Metabolite-corrected plasma-derived arterial input function and whole blood time-activity curve were used for Logan, 1TCM, and 2TCM analyses. Fractional cerebral blood volume was set to 3.6 % [27]. For one rat in the raclopride-treated group, no input curves could be obtained; therefore, its PET data were only analyzed with SRTM.
Degree of D2/3R-specific binding of the tracers was characterized by BPND (as given above) or the specific binding ratio (SBR) given as target region activity/cerebellar activity - 1. Both were calculated under control conditions and in response to the raclopride challenge.

[1] = Brainstem, raclopride, listed as [18F]FEt-AMC13

1TCM VT (Brainstem, control): 5.67±0.33
2TCM VT (Brainstem, control): 6.17±0.52
Logan VT (Brainstem, control): 6.12±0.57
1TCM VT (Brainstem, raclopride): 4.99±0.56
2TCM VT (Brainstem, raclopride): 5.46±0.36
Logan VT (Brainstem, raclopride): 5.53±0.26
1TCM VT (Cerebellum, control): 4.68±0.34
2TCM VT (Cerebellum, control): 5.08±0.49
Logan VT (Cerebellum, control): 5.06±0.53
1TCM VT (Cerebellum, raclopride): 4.43±0.40
2TCM VT (Cerebellum, raclopride): 4.96±0.44
Logan VT (Cerebellum, raclopride): 4.99±0.30
1TCM VT (Cortex, control): 5.53±0.38
2TCM VT (Cortex, control): 5.75±0.45
Logan VT (Cortex, control): 5.69±0.49
Structure (SMILES): Oc1ccc2c(c1)O[C@@H](CNCc1ccc(OCC[18F])cc1)CC2 [[^18F]FEt-AMC13]
fall of striatal BPND (1 mg/kg raclopride, depending on the kinetic model): 18–27%
1TCM BPND (Brainstem, control): 0.21±0.03
2TCM BPND (VT-based) (Brainstem, control): 0.22 ± 0.02
Logan BPND (Brainstem, control): 0.21±0.02
SRTM BPND (Brainstem, control): 0.18 ± 0.04
1TCM K1 (Brainstem, control rat A): 0.63 ± 0.04 mL/g/min
1TCM k2 (Brainstem, control rat A): 0.10 ± 0.02 min⁻¹
2TCM K1 (Brainstem, control rat A): 2.03 ± 0.40 mL/g/min
2TCM k2 (Brainstem, control rat A): 3.53 ± 1.32 min⁻¹
2TCM k3 (Brainstem, control rat A): 1.05 ± 0.19 min⁻¹
2TCM k4 (Brainstem, control rat A): 0.10 ± 0.01 min⁻¹
1TCM K1 (Brainstem, control rat B): 0.60 ± 0.03 mL/g/min
1TCM k2 (Brainstem, control rat B): 0.11 ± 0.01 min⁻¹
2TCM K1 (Brainstem, control rat B): 0.96 ± 0.11 mL/g/min
2TCM k2 (Brainstem, control rat B): 0.89 ± 0.30 min⁻¹
2TCM k3 (Brainstem, control rat B): 0.72 ± 0.83 min⁻¹
2TCM k4 (Brainstem, control rat B): 0.15 ± 1.20 min⁻¹
1TCM K1 (Brainstem, control rat C): 0.68 ± 0.02 mL/g/min
1TCM k2 (Brainstem, control rat C): 0.12 ± 0.01 min⁻¹
2TCM K1 (Brainstem, control rat C): 1.11 ± 0.22 mL/g/min
2TCM k2 (Brainstem, control rat C): 1.19 ± 0.59 min⁻¹
2TCM k3 (Brainstem, control rat C): 1.10 ± 1.86 min⁻¹
2TCM k4 (Brainstem, control rat C): 0.21 ± 2.66 min⁻¹
1TCM K1 (Brainstem, control rat D): 0.71 ± 0.03 mL/g/min
1TCM k2 (Brainstem, control rat D): 0.13 ± 0.01 min⁻¹
2TCM K1 (Brainstem, control rat D): 4.75 ± 5.87 mL/g/min
2TCM k2 (Brainstem, control rat D): 19.6 ± 19.9 min⁻¹
2TCM k3 (Brainstem, control rat D): 2.79 ± 15.04 min⁻¹
2TCM k4 (Brainstem, control rat D): 0.12 ± 37.81 min⁻¹
1TCM BPND (Brainstem, raclopride): 0.13±0.03
1TCM BPND change relative to control (Brainstem, raclopride): -41%
2TCM BPND (VT-based) (Brainstem, raclopride): 0.10 ± 0.02
2TCM BPND change relative to control (Brainstem, raclopride): −53%
Logan BPND (Brainstem, raclopride): 0.11±0.02
Logan BPND change relative to control (Brainstem, raclopride): -47%
SRTM BPND (Brainstem, raclopride): 0.07 ± 0.03
SRTM BPND change relative to control (Brainstem, raclopride): −60%
2TCM BPND (VT-based) [1]: 0.10±0.02
2TCM BPND change relative to control [1]: -53%
SRTM BPND [1]: 0.07±0.03
SRTM BPND change relative to control [1]: –60%
1TCM K1 (Cerebellum, control rat A): 0.57 ± 0.04 mL/g/min
1TCM k2 (Cerebellum, control rat A): 0.11 ± 0.02 min⁻¹
2TCM K1 (Cerebellum, control rat A): 2.10 ± 0.32 mL/g/min
2TCM k2 (Cerebellum, control rat A): 4.90 ± 1.30 min⁻¹
2TCM k3 (Cerebellum, control rat A): 1.23 ± 0.13 min⁻¹
2TCM k4 (Cerebellum, control rat A): 0.10 ± 0.005 min⁻¹
1TCM K1 (Cerebellum, control rat B): 0.61 ± 0.02 mL/g/min
1TCM k2 (Cerebellum, control rat B): 0.13 ± 0.01 min⁻¹
2TCM K1 (Cerebellum, control rat B): 0.81 ± 0.05 mL/g/min
2TCM k2 (Cerebellum, control rat B): 0.53 ± 0.24 min⁻¹
2TCM k3 (Cerebellum, control rat B): 0.46 ± 0.55 min⁻¹
2TCM k4 (Cerebellum, control rat B): 0.20 ± 0.71 min⁻¹
1TCM K1 (Cerebellum, control rat C): 0.62 ± 0.01 mL/g/min
1TCM k2 (Cerebellum, control rat C): 0.13 ± 0.01 min⁻¹
2TCM K1 (Cerebellum, control rat C): 0.86 ± 0.21 mL/g/min
2TCM k2 (Cerebellum, control rat C): 1.13 ± 1.45 min⁻¹
2TCM k3 (Cerebellum, control rat C): 1.84 ± 1.78 min⁻¹
2TCM k4 (Cerebellum, control rat C): 0.34 ± 0.12 min⁻¹
1TCM K1 (Cerebellum, control rat D): 0.68 ± 0.03 mL/g/min
1TCM k2 (Cerebellum, control rat D): 0.16 ± 0.02 min⁻¹
2TCM K1 (Cerebellum, control rat D): 48.7 ± 819.7 mL/g/min
2TCM k2 (Cerebellum, control rat D): 298 ± 5152 min⁻¹
2TCM k3 (Cerebellum, control rat D): 3.55 ± 1.05 min⁻¹
2TCM k4 (Cerebellum, control rat D): 0.13 ± 0.03 min⁻¹
1TCM BPND (Cortex, control): 0.18±0.05
2TCM BPND (VT-based) (Cortex, control): 0.13 ± 0.04
Logan BPND (Cortex, control): 0.13±0.03
SRTM BPND (Cortex, control): 0.11 ± 0.03
1TCM K1 (Cortex, control rat A): 0.37 ± 0.02 mL/g/min
1TCM k2 (Cortex, control rat A): 0.06 ± 0.01 min⁻¹
2TCM K1 (Cortex, control rat A): 1.68 ± 0.46 mL/g/min
2TCM k2 (Cortex, control rat A): 7.83 ± 1.43 min⁻¹
2TCM k3 (Cortex, control rat A): 1.84 ± 0.62 min⁻¹
2TCM k4 (Cortex, control rat A): 0.06 ± 4.47 min⁻¹
1TCM K1 (Cortex, control rat B): 0.47 ± 0.02 mL/g/min
1TCM k2 (Cortex, control rat B): 0.09 ± 0.01 min⁻¹
2TCM K1 (Cortex, control rat B): 0.66 ± 0.04 mL/g/min
2TCM k2 (Cortex, control rat B): 0.64 ± 0.21 min⁻¹
2TCM k3 (Cortex, control rat B): 0.72 ± 0.24 min⁻¹
2TCM k4 (Cortex, control rat B): 0.16 ± 0.02 min⁻¹
1TCM K1 (Cortex, control rat C): 0.41 ± 0.01 mL/g/min
1TCM k2 (Cortex, control rat C): 0.07 ± 0.002 min⁻¹
2TCM K1 (Cortex, control rat C): 0.43 ± 0.12 mL/g/min
